Structures can show the parent of a compound that is named as a salt.
Molecular target: T1, recombinant human NR2F6 protein (Homo sapiens, UniProt P10588)
T1 sequence (P10588 1-404): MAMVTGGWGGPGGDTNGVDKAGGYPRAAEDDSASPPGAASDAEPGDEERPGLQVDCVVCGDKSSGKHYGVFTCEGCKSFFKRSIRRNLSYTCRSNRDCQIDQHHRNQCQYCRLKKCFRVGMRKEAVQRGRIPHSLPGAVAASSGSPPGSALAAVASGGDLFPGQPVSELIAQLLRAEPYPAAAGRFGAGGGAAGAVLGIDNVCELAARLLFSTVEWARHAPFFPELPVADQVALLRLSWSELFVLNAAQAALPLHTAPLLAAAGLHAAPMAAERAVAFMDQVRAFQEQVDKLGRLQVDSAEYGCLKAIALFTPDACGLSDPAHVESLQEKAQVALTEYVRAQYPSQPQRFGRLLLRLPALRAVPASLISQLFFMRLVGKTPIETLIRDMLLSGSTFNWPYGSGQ
Experiment: Biochemical NR2F6 binding assay (EnSpire label-free)
Conditions: label-free binding to immobilized purified recombinant human NR2F6; ligands 1 nM to 100 uM, 1% DMSO
How it was run: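 Recombinant human NR2F6 was immobilized at pH 4.5 (50 μg/well, 16 h, 4° C) on label-free biosensor plates. Ligands were tested from 1 nM to 100 uM in 1% DMSO, with readings over 30 minutes. Binding was measured as reflected-wavelength shift (pm), and EC50 was derived from concentration-response curves.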

SMILES	EC50
O=C(Nc1cccc2cnccc12)[C@H]1CNC[C@@H]1c1ccc(C(F)(F)F)cc1 [Compound I-82, (3R,4S)-4-(4-Trifluorophenyl)-N-(isoquinolin-5-yl)pyrrolidine-3-carboxamide dihydrochloride]	> 50000 nM
O=C(Nc1cccc2c(Cl)nccc12)[C@H]1CNC[C@@H]1c1ccccc1 [Compound I-83, (3R,4S)—N-(1-Chloroisoquinolin-5-yl)-4-phenylpyrrolidine-3-carboxamide dihydrochloride]	1000 to 10000 nM
Cn1ccc2c(NC(=O)[C@H]3CNC[C@@H]3c3ccccc3)cccc2c1=O [Compound I-84, (3R,4S)—N-(2-Methyl-1-oxo-1,2-dihydroisoquinolin-5-yl)-4-phenylpyrrolidine-3-carboxamide hydrochloride]	> 50000 nM
O=C(Nc1cccc2cnccc12)[C@H]1CNC[C@H]1c1ccccc1 [Compound I-88, (3R,4R)—N-(Isoquinolin-5-yl)-4-phenylpyrrolidine-3-carboxamide dihydrochloride]	1000 to 10000 nM
O=C(NCc1cccc2cnccc12)[C@@H]1CNC[C@H]1c1ccccc1 [Compound I-95, (3S,4R)—N-(Isoquinolin-5-ylmethyl)-4-phenylpyrrolidine-3-carboxamide dihydrochloride]	1000 to 10000 nM
Cc1nccc2c(NC(=O)[C@H]3CNC[C@@H]3c3ccc(C(F)(F)F)cc3)cccc12 [Compound I-96, (3R,4S)—N-(1-Methylisoquinolin-5-yl)-4-[4-(trifluoromethyl)phenyl]pyrrolidine-3-carboxamide dihydrochloride]	1000 to 10000 nM
O=C(Nc1ccc(-c2ccc(C(F)(F)F)nc2)cc1)[C@@H]1CNC[C@H]1c1ccccc1 [Compound I-103, (3S,4R)-4-Phenyl-N-[4-[6-(trifluoromethyl)pyridin-3-yl]phenyl]pyrrolidine-3-carboxamide hydrochloride]	< 1000 nM
O=C(Nc1ccc(-c2ccc(F)nc2)cc1)[C@@H]1CNC[C@H]1c1ccccc1 [Compound I-108, (3S,4R)—N-[4-(6-Fluoropyridin-3-yl)phenyl]-4-phenylpyrrolidine-3-carboxamide dihydrochloride]	< 1000 nM
O=C(Nc1cccc2ccccc12)[C@H]1CNC[C@@H]1c1ccc(C(F)(F)F)cc1 [Compound I-109, (3R,4S)—N-(Naphthalen-1-yl)-4-[4-(trifluoromethyl)phenyl]pyrrolidine-3-carboxamide hydrochloride]	1000 to 10000 nM
O=C(Nc1cccc2ccccc12)[C@@H]1CNC[C@H]1c1ccc(C(F)(F)F)cc1 [Compound I-110, (3S,4R)—N-(Naphthalen-1-yl)-4-[4-(trifluoromethyl)phenyl]pyrrolidine-3-carboxamide hydrochloride]	1000 to 10000 nM
N#Cc1ccc(Oc2cccc(NC(=O)[C@H]3CNC[C@@H]3c3ccccc3)c2)cc1 [Compound I-111, (3R,4S)—N-[3-(4-Cyanophenoxy)phenyl]-4-phenylpyrrolidine-3-carboxamide hydrochloride]	< 1000 nM
N#Cc1ccc(Oc2cccc(NC(=O)[C@@H]3CNC[C@H]3c3ccccc3)c2)cc1 [Compound I-112, (3S,4R)—N-[3-(4-Cyanophenoxy)phenyl]-4-phenylpyrrolidine-3-carboxamide hydrochloride]	< 1000 nM
O=C(Nc1cccc(Nc2ccccc2)c1)[C@H]1CNC[C@@H]1c1ccccc1 [Compound I-113, (3R,4S)-4-Phenyl-N-[3-(phenylamino)phenyl]pyrrolidine-3-carboxamide hydrochloride]	1000 to 10000 nM
O=C(Nc1cccc(Nc2ccccc2)c1)[C@@H]1CNC[C@H]1c1ccccc1 [Compound I-114, (3S,4R)-4-Phenyl-N-[3-(phenylamino)phenyl]pyrrolidine-3-carboxamide hydrochloride]	1000 to 10000 nM
O=C(N[C@H]1C[C@H](c2ccccc2)C1)[C@@H]1CNC[C@H]1c1ccccc1 [Compound I-117, (3S,4R)-4-Phenyl-N-(trans-3-phenylcyclobutyl)pyrrolidine-3-carboxamide hydrochloride]	1000 to 10000 nM
O=C(NC1CN(c2ccc(F)cc2)C1)[C@@H]1CNC[C@H]1c1ccccc1 [Compound I-118, (3S,4R)-4-Phenyl-N-(1-4-fluorophenylazetidin-3-yl)pyrrolidine-3-carboxamide hydrochloride]	< 1000 nM
O=C(Nc1cccc(Oc2ccc(C(F)(F)F)nc2)c1)[C@H]1CNC[C@@H]1c1ccccc1 [Compound I-119, 3R,4S)-4-Phenyl-N-(3-{[6-(trifluoromethyl)pyridin-3-yl]oxy}phenyl) pyrrolidine-3-carboxamide dihydrochloride]	1000 to 10000 nM
O=C(Nc1cccc(Oc2ccc(C(F)(F)F)nc2)c1)[C@@H]1CNC[C@H]1c1ccccc1 [Compound I-120, (3S,4R)-4-Phenyl-N-(3-{[6-(trifluoromethyl)pyridin-3-yl]oxy}phenyl) pyrrolidine-3-carboxamide dihydrochloride]	1000 to 10000 nM
O=C(NC1CCN(c2ccc(F)cc2)CC1)[C@@H]1CNC[C@H]1c1ccccc1 [Compound I-121, (3S,4R)-3-{[1-(4-Fluorophenyl)Ipiperidin-4-yl]carbamoyl]}-4-phenylpyrrolidine dihydrochloride]	1000 to 10000 nM
N#Cc1ccc(N2CCC(NC(=O)[C@@H]3CNC[C@H]3c3ccccc3)CC2)cc1 [Compound I-122, (3S,4R)-3-{[1-(4-Cyanophenyl)lpiperidin-4-yl]carbamoyl]}-4-phenylpyrrolidine dihydrochloride]	< 1000 nM
O=C(NC1CCN(c2ccccc2)CC1)[C@@H]1CNC[C@H]1c1ccccc1 [Compound I-123, (3S,4R)-3-[(l-Phenylpiperidin-4-yl)carbamoyl]-4-phenylpyrrolidine dihydrochloride]	1000 to 10000 nM
